Measured values taken from the NIST ThermoML archive (doi:10.1016/j.jct.2011.12.010).

Experiment: molar heat capacity at constant pressure
Conditions: 101.33 kPa, Vacuum adiabatic calorimetry

CC(C)(C)Cc1ccccc1 [(2,2-dimethylpropyl)benzene]
molar heat capacity at constant pressure [J/K/mol]
Conditions	Crystal	Liquid
5 K	0.3584	–
6.43 K	0.79	–
6.83 K	0.95	–
7.1 K	1.05	–
7.5 K	1.2	–
7.91 K	1.41	–
8.27 K	1.62	–
8.57 K	1.81	–
8.9 K	2.04	–
9.24 K	2.3	–
9.58 K	2.54	–
9.91 K	2.77	–
10 K	2.835	–
10.24 K	3	–
10.55 K	3.28	–
10.86 K	3.54	–
11.15 K	3.76	–
11.45 K	4.08	–
11.74 K	4.36	–
12.04 K	4.69	–
12.51 K	5.2	–
13.17 K	6	–
13.78 K	6.68	–
14.4 K	7.42	–
14.99 K	8.11	–
15 K	8.156	–
15.59 K	8.88	–
16.17 K	9.65	–
16.76 K	10.42	–
17.35 K	11.18	–
18.02 K	12.15	–
18.82 K	13.47	–
19.44 K	14.45	–
20 K	15.37	–
20.07 K	15.49	–
20.87 K	16.75	–
21.6 K	17.96	–
22.31 K	19.18	–
22.92 K	20.15	–
23.68 K	21.34	–
24.39 K	22.44	–
25 K	23.31	–
25.18 K	23.58	–
25.93 K	24.66	–
26.71 K	25.76	–
27.52 K	26.89	–
28.33 K	28.13	–
29.16 K	29.24	–
30 K	30.36	–
30.01 K	30.42	–
30.87 K	31.42	–
31.75 K	32.74	–
32.64 K	33.75	–
33.41 K	34.7	–
34.46 K	36.13	–
35 K	36.76	–
35.4 K	37.3	–
36.35 K	38.43	–
37.32 K	39.67	–
38.31 K	40.94	–
39.3 K	41.89	–
40 K	42.83	–
40.33 K	43.02	–
41.36 K	44.25	–
42.4 K	45.57	–
43.47 K	46.7	–
44.54 K	47.93	–
45 K	48.21	–
45.63 K	48.9	–
46.73 K	49.79	–
47.83 K	50.85	–
48.96 K	51.7	–
50 K	52.68	–
50.08 K	52.7	–
51.22 K	53.77	–
52.37 K	54.62	–
53.54 K	55.66	–
54.59 K	56.42	–
56 K	57.64	–
57.09 K	58.58	–
58.29 K	59.72	–
59.5 K	60.71	–
60 K	61.21	–
60.59 K	61.7	–
61.93 K	63.06	–
63.16 K	64.15	–
64.57 K	65.26	–
65.64 K	66.12	–
66.89 K	67.2	–
68.15 K	68	–
69.4 K	69.06	–
70 K	69.54	–
70.99 K	70.19	–
72.9 K	71.7	–
74.83 K	72.92	–
76.87 K	74.43	–
78.7 K	75.75	–
79.98 K	76.76	–
80 K	76.67	–
80.65 K	77.08	–
81.93 K	78.1	–
82.61 K	78.8	–
83.87 K	79.5	–
84.58 K	80.15	–
85.81 K	80.93	–
86.55 K	81.42	–
87.75 K	82.4	–
88.51 K	82.92	–
89.69 K	83.89	–
90 K	84.14	–
90.49 K	84.64	–
91.64 K	85.39	–
92.48 K	86.14	–
93.59 K	86.97	–
95.54 K	88.3	–
97.5 K	89.8	–
99.45 K	91.29	–
100 K	91.54	–
101.41 K	92.54	–
103.37 K	94.12	–
105.32 K	95.53	–
107.28 K	97.03	–
109.23 K	98.11	–
110 K	98.78	–
111.18 K	99.61	–
113.14 K	100.85	–
115.09 K	102.6	–
117.46 K	104.26	–
119.37 K	105.34	–
120 K	105.9	–
121.31 K	106.92	–
123.26 K	108	–
125.2 K	109.67	–
127.13 K	110.75	–
129.07 K	111.99	–
130 K	112.8	–
131 K	113.49	–
132.93 K	115.07	–
134.85 K	116.15	–
136.78 K	117.4	–
138.7 K	118.65	–
140 K	119.7	–
140.61 K	120.14	–
142.53 K	121.39	–
144.43 K	122.97	–
146.34 K	124.22	–
148.22 K	125.63	–
150 K	126.5	–
150.12 K	126.88	–
152.5 K	128.37	–
155.37 K	130.04	–
158.24 K	132.28	–
160 K	133.4	–
161.11 K	134.11	–
163.99 K	135.94	–
166.87 K	138.27	–
169.76 K	140.35	–
170 K	140.3	–
172.66 K	141.93	–
175.55 K	144.34	–
178.45 K	146.25	–
180 K	147.4	–
181.36 K	148.33	–
184.27 K	150.32	–
187.18 K	152.57	–
190 K	154.6	–
190.11 K	154.9	–
194.33 K	157.56	–
197.18 K	160.05	–
200 K	162	–
200.37 K	162.3	–
203.56 K	164.63	–
206.46 K	166.79	–
209.27 K	168.78	–
210 K	169.1	–
212.11 K	170.36	–
215.02 K	172.52	–
217.92 K	174.27	–
220 K	175.9	–
220.82 K	176.51	–
223.7 K	178.18	–
226.59 K	180.26	–
229.46 K	182.33	–
230 K	182.6	–
232.33 K	184.33	–
235.2 K	186.58	–
238.05 K	188.32	–
239.91 K	189.73	–
240 K	189.4	–
240.89 K	190.48	–
240.92 K	190.57	–
241.92 K	190.98	–
242.92 K	191.9	–
243.72 K	192.4	–
243.92 K	192.73	–
244.93 K	193.73	–
246 K	195.64	–
246.56 K	197.88	–
246.6 K	202.12	–
247.1 K	197.38	–
248.19 K	200.88	–
249.28 K	206.03	–
249.34 K	207.61	–
250 K	196.1	–
250.36 K	213.26	–
251.42 K	222.66	–
252.01 K	245.27	–
252.39 K	417.05	–
252.46 K	249.27	–
253.4 K	315.03	–
254.15 K	685.44	–
254.18 K	538.11	–
254.69 K	1232.2	–
254.95 K	2919.2	–
255.01 K	4462.3	–
255.06 K	8092.4	–
255.09 K	5555.7	–
255.17 K	8555.5	–
255.21 K	9885.8	–
255.43 K	199.7	249.6
256.43 K	–	250.01
257.37 K	–	252.18
257.44 K	–	250.6
258.44 K	–	251.09
258.78 K	–	252.09
259.45 K	–	251.68
260 K	–	252
260.46 K	–	252.26
261.48 K	–	252.92
262.48 K	–	253.42
263.49 K	–	254
264.48 K	–	254.59
264.99 K	–	254.92
265.49 K	–	255.09
266.49 K	–	255.67
267.49 K	–	256
268.67 K	–	256.58
270 K	–	257.2
271.15 K	–	257.83
277.28 K	–	260.82
280 K	–	262.5
283.39 K	–	264.31
289.47 K	–	267.64
290 K	–	268
295.52 K	–	270.8
298.15 K	–	271.9
300 K	–	272.6
300.23 K	–	272.71
300.79 K	–	273.13
301.54 K	–	273.46
304.11 K	–	274.29
304.68 K	–	274.54
307.54 K	–	275.37
307.98 K	–	275.62
308.57 K	–	275.71
310 K	–	276.3
311.84 K	–	276.95
312.43 K	–	277.2
313.51 K	–	277.62
315.67 K	–	278.2
316.31 K	–	278.53
319.32 K	–	279.36
319.51 K	–	279.86
320 K	–	279.8
320.02 K	–	279.95
323.33 K	–	281.36
323.89 K	–	281.44
325.26 K	–	281.86
327.15 K	–	283.02
327.74 K	–	283.02
330 K	–	284.4
330.95 K	–	285.27
331.19 K	–	285.18
331.59 K	–	285.27
334.56 K	–	287.35
335.41 K	–	288.01
337.07 K	–	289.09
338.32 K	–	289.92
339.23 K	–	290.51
340 K	–	290.8
342.07 K	–	292.33
342.92 K	–	292.67
343.02 K	–	292.75
345.8 K	–	294.83
346.79 K	–	295.24
348.74 K	–	295.99
349.52 K	–	296.82
350 K	–	297
350.54 K	–	297.49
